# PubChem BioAssay AID743503 (Broad Institute, 2014)
# Active and inactive are the calls of the source.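 Rule for the calls: active = IC50 under 35 µM for lowering the luciferase reporter signal in dopamine receptor counterscreen cells; inactive = IC50 over 35 µM.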
# Test system: HEK293 dopamine receptor CRE-luciferase, luminescence
# Test: inhibition of dopamine-driven CRE reporter signal – cell-based, HEK293, luminescence, dry powder, set 2, counter-screen for LGR2 antagonist project, dose response (AID 743503)
row,Structure (SMILES),IC50
1,Cc1ccc(NC(=O)N(C)C[C@@H]2OCCCC[C@H](C)Oc3ccc(NC(=O)C4CCCCC4)cc3C(=O)N([C@H](C)CO)C[C@@H]2C)cc1,> 35 µM (inactive)
2,C[C@H](CO)N1C[C@H](C)[C@H](CN(C)C(=O)Nc2ccccc2F)OCCCC[C@H](C)Oc2ccc(NC(=O)C3CCCCC3)cc2C1=O,> 35 µM (inactive)
3,C[C@H](CO)N1C[C@H](C)[C@H](CN(C)C(=O)Nc2ccc3ccccc3c2)OCCCC[C@H](C)Oc2ccc(NC(=O)C3CCCCC3)cc2C1=O,> 35 µM (inactive)
4,C[C@H](CO)N1C[C@H](C)[C@H](CN(C)C(=O)Nc2ccc(F)cc2)OCCCC[C@H](C)Oc2ccc(NC(=O)C3CCCC3)cc2C1=O,> 35 µM (inactive)
5,C[C@H](CO)N1C[C@H](C)[C@H](CN(C)C(=O)Nc2cccc(F)c2)OCCCC[C@H](C)Oc2ccc(NC(=O)C3CCCCC3)cc2C1=O,> 35 µM (inactive)
6,C[C@H](CO)N1C[C@H](C)[C@H](CN(C)C(=O)Nc2ccc(F)cc2)OCCCC[C@H](C)Oc2ccc(NC(=O)C3CCCCCC3)cc2C1=O,> 35 µM (inactive)
7,C[C@H](CO)N1C[C@H](C)[C@H](CN(C)C(=O)Nc2ccc(Cl)cc2)OCCCC[C@H](C)Oc2ccc(NC(=O)C3CCCCC3)cc2C1=O,> 35 µM (inactive)
8,C[C@H](CO)N1C[C@H](C)[C@H](CN(C)C(=O)Nc2cccc3ccccc23)OCCCC[C@H](C)Oc2ccc(NC(=O)C3CCCCC3)cc2C1=O,> 35 µM (inactive)
9,C[C@@H]1CN([C@@H](C)CO)C(=O)c2cc(NC(=O)C3CCCCC3)ccc2O[C@@H](C)CCCCO[C@H]1CN(C)C(=O)Nc1cccc2ccccc12,> 35 µM (inactive)
10,C[C@H]1CCCCO[C@@H](CN(C)C(=O)Nc2cccc3ccccc23)[C@@H](C)CN([C@@H](C)CO)C(=O)c2cc(NC(=O)C3CCCCC3)ccc2O1,> 35 µM (inactive)
